Measurements reported in ChEMBL document CHEMBL2010763, “Discovery of a new binding mode for a series of liver X receptor agonists” (Bioorg Med Chem Lett, 2012).
Activity calls are given as the source filed them. The calls are words filed in the database; no cut-off is given here.

Columns and labels:
[1] = biological target: Oxysterols receptor LXR-beta (Homo sapiens, UniProt P55055); test: Displacement of [3H]N-(4-(1,1,1,3,3,3-hexafluoro-2-hydroxypropan-2-yl)phenyl)-N-methylbenzenesulfonamide from LXRbeta by scintillation proximity assay
Oxysterols receptor LXR-beta, sequence (P55055 whole entry): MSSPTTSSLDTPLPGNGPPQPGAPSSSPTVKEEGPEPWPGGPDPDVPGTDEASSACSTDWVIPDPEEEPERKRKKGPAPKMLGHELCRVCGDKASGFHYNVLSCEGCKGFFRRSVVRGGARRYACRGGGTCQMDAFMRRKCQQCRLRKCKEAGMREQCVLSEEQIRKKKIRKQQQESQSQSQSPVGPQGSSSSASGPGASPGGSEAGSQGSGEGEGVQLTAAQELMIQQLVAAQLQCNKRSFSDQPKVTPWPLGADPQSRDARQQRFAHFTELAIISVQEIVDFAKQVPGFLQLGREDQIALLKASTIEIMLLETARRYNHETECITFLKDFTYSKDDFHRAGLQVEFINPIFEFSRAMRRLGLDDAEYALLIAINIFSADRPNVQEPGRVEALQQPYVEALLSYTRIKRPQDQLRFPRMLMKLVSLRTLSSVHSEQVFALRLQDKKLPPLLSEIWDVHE

[2] = biological target: T1, Oxysterols receptor LXR-alpha (Homo sapiens) (UniProt Q13133); test: (§1) Displacement of [3H]N-(4-(1,1,1,3,3,3-hexafluoro-2-hydroxypropan-2-yl)phenyl)-N-methylbenzenesulfonamide from LXRalpa by scintillation proximity assay
T1 sequence (whole entry): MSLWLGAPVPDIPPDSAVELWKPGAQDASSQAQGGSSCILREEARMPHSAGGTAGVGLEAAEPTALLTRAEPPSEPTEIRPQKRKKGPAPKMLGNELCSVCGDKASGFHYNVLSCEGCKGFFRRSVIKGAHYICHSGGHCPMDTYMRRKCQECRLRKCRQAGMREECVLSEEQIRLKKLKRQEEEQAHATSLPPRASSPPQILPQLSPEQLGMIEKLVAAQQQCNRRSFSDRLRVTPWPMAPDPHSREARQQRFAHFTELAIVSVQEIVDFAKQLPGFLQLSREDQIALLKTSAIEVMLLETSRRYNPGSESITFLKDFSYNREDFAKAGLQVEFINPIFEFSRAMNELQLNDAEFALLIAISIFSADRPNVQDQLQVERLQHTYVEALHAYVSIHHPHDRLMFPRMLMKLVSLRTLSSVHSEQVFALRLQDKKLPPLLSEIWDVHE

[3] = biological target: T2, Oxysterols receptor LXR-alpha (Homo sapiens, UniProt Q13133); test: as §1
T2 sequence (Q13133 whole entry): T1 sequence (whole entry)

inhibition [1]	inhibition [2]	IC50 [1]	IC50 [3]	Compound
inactive	inactive			CN(c1ccc(C(O)(c2cccn2CCCO)C(F)(F)F)cc1)S(=O)(=O)c1ccccc1 (centres undefined)
inactive	inactive			CCCCCCn1cccc1C(O)(c1ccc(N(C)S(=O)(=O)c2ccccc2)cc1)C(F)(F)F (centres undefined)
inactive	inactive			CCOC(c1ccc(N(C)S(=O)(=O)c2ccccc2)cc1)c1cccn1CCOC (centres undefined)
inactive	inactive			COCCn1cccc1C(CO)c1ccc(N(C)S(=O)(=O)c2ccccc2)cc1 (centres undefined)
inactive	inactive			COCCn1cccc1C(C)(O)c1ccc(N(C)S(=O)(=O)c2ccccc2)cc1 (centres undefined)
inactive	inactive			COCCn1cccc1C(OC)c1ccc(N(C)S(=O)(=O)c2ccccc2)cc1 (centres undefined)
inactive	inactive			CCCC(O)(c1ccc(N(C)S(=O)(=O)c2ccccc2)cc1)c1cccn1CCOC (centres undefined)
inactive	inactive			CN(c1ccc(C(O)(c2cccn2C)C(F)(F)F)cc1)S(=O)(=O)c1ccccc1 (centres undefined)

The next lines start with the compound.

Compound	inhibition [1]	inhibition [2]	IC50 [1]	IC50 [3]
CCC(c1ccc(N(C)S(=O)(=O)c2ccccc2)cc1)c1cccn1CCOC (centres undefined)	inactive	inactive		
COCCn1cccc1C(=O)c1ccc(N(C)S(=O)(=O)c2ccccc2)cc1	inactive	inactive		
COCCn1cccc1C(C)c1ccc(N(C)S(=O)(=O)c2ccccc2)cc1 (centres undefined)	inactive	inactive		
CCC(C)n1cccc1C(O)(c1ccc(N(C)S(=O)(=O)c2ccccc2)cc1)C(F)(F)F (centres undefined)	inactive	inactive		
CN(c1ccc(C(O)(c2ccc[nH]2)C(F)(F)F)cc1)S(=O)(=O)c1ccccc1 (centres undefined)	inactive	inactive		
COCCn1cccc1C(O)c1ccc(N(C)S(=O)(=O)c2ccccc2)cc1 (centres undefined)	inactive	inactive		
CCC(O)(c1ccc(N(C)S(=O)(=O)c2ccccc2)cc1)c1cccn1CCOC (centres undefined)	inactive	inactive		
CCn1cccc1C(O)(c1ccc(N(C)S(=O)(=O)c2ccccc2)cc1)C(F)(F)F (centres undefined)	inactive	inactive		
CCCn1cccc1C(O)(c1ccc(N(C)S(=O)(=O)c2ccccc2)cc1)C(F)(F)F (centres undefined)	inactive	inactive		
COC(c1ccc(N(C)S(=O)(=O)c2ccccc2)cc1)(c1cccn1Cc1ccccc1)C(F)(F)F (racemic)			> 10 µM	> 10 µM
COCCn1cccc1Cc1ccc(N(C)S(=O)(=O)c2ccccc2)cc1	inactive	inactive		
CCCC(c1ccc(N(C)S(=O)(=O)c2ccccc2)cc1)c1cccn1CCOC (centres undefined)	inactive	inactive		
CN(c1ccc(C(O)(c2cccn2CCO)C(F)(F)F)cc1)S(=O)(=O)c1ccccc1 (centres undefined)	inactive	inactive		
CCCCn1cccc1C(O)(c1ccc(N(C)S(=O)(=O)c2ccccc2)cc1)C(F)(F)F (centres undefined)	inactive	inactive		
